Literature values, collected in patent publication EP4286484B1, “AQUEOUS PRETREATMENT LIQUID, INK SET, PRINTED ITEM, AND SEPARATION METHOD” (priority 2022, dated 2023).

Conditions: anhydrous calcium salt of the named counter anion

solubility of the corresponding anhydrous calcium salt in 100 g of water at 20°C: 2 g
Compound: O=C([O-])c1ccccc1.O=C([O-])c1ccccc1.[Ca+2] [benzoate ion]
